Reference: PubChem BioAssay (NCI)
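These data come from cells grown in 96-well plates and exposed to compound for 48 hours at five concentrations. TGI: total growth inhibition.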

Assays:
Assay in all cases: NCI tumour cell line growth inhibition, 48 h
COLO 205 colon = test system: COLO 205 colon
MOLT-4 leukemia = test system: MOLT-4 leukemia
M14 melanoma = test system: M14 melanoma
A498 renal = test system: A498 renal
SNB-75 CNS = test system: SNB-75 CNS
A549 NSCLC = test system: A549 NSCLC
UACC-257 melanoma = test system: UACC-257 melanoma
OVCAR-5 ovarian = test system: OVCAR-5 ovarian
LOX IMVI melanoma = test system: LOX IMVI melanoma
HL-60(TB) leukemia = test system: HL-60(TB) leukemia
T-47D breast = test system: T-47D breast
CCRF-CEM leukemia = test system: CCRF-CEM leukemia
EKVX NSCLC = test system: EKVX NSCLC
DU-145 prostate = test system: DU-145 prostate
NCI-H23 lung = test system: NCI-H23 lung
HOP-18 NSCLC = test system: HOP-18 NSCLC
SR leukemia = test system: SR leukemia
NCI-H522 lung = test system: NCI-H522 lung
K-562 leukemia = test system: K-562 leukemia
SN12C renal = test system: SN12C renal
NCI-H226 lung = test system: NCI-H226 lung
KM12 colon = test system: KM12 colon
SF-268 CNS = test system: SF-268 CNS
KM20L2 colon = test system: KM20L2 colon
NCI/ADR-RES ovarian = test system: NCI/ADR-RES ovarian
P388/ADR leukemia = test system: P388/ADR leukemia
HOP-62 NSCLC = test system: HOP-62 NSCLC
DLD-1 colon = test system: DLD-1 colon
ACHN renal = test system: ACHN renal
OVCAR-4 ovarian = test system: OVCAR-4 ovarian
NCI-H460 lung = test system: NCI-H460 lung
MDA-MB-231 breast = test system: MDA-MB-231 breast
DMS 114 small cell lung = test system: DMS 114 small cell lung
SW-620 colon = test system: SW-620 colon
HCT-116 colon = test system: HCT-116 colon
OVCAR-8 ovarian = test system: OVCAR-8 ovarian
HOP-92 NSCLC = test system: HOP-92 NSCLC
UO-31 renal = test system: UO-31 renal
SF-539 CNS = test system: SF-539 CNS
P388 leukemia = test system: P388 leukemia
CAKI-1 renal = test system: CAKI-1 renal
HS 578T breast = test system: HS 578T breast
SNB-78 CNS = test system: SNB-78 CNS
SK-OV-3 ovarian = test system: SK-OV-3 ovarian
SK-MEL-5 melanoma = test system: SK-MEL-5 melanoma
SN12K1 renal = test system: SN12K1 renal
IGROV1 ovarian = test system: IGROV1 ovarian
PC-3 prostate = test system: PC-3 prostate
SNB-19 CNS = test system: SNB-19 CNS
HCC-2998 colon = test system: HCC-2998 colon
XF 498 CNS = test system: XF 498 CNS
MALME-3M melanoma = test system: MALME-3M melanoma
UACC-62 melanoma = test system: UACC-62 melanoma
SK-MEL-28 melanoma = test system: SK-MEL-28 melanoma
OVCAR-3 ovarian = test system: OVCAR-3 ovarian
SF-295 CNS = test system: SF-295 CNS
HCT-15 colon = test system: HCT-15 colon
DMS 273 small cell lung = test system: DMS 273 small cell lung
RXF 393 renal = test system: RXF 393 renal
BT-549 breast = test system: BT-549 breast
U251 CNS = test system: U251 CNS
M19-MEL melanoma = test system: M19-MEL melanoma
SK-MEL-2 melanoma = test system: SK-MEL-2 melanoma
MDA-N = test system: MDA-N
HT29 colon = test system: HT29 colon
TK-10 renal = test system: TK-10 renal
MCF7 breast = test system: MCF7 breast
MDA-MB-435 = test system: MDA-MB-435
786-0 renal = test system: 786-0 renal
RPMI-8226 leukemia = test system: RPMI-8226 leukemia

SMILES: CNC(=O)OCc1nc(SC)n(C)c1COC(=O)NC
- TGI (COLO 205 colon): 295 µM
- TGI (MOLT-4 leukemia): 142 µM
- TGI (M14 melanoma): 347 µM
- TGI (A498 renal): 386 µM
- TGI (SNB-75 CNS): 349 µM
- TGI (A549 NSCLC): 836 µM
- TGI (UACC-257 melanoma): 335 µM
- TGI (OVCAR-5 ovarian): 451 µM
- TGI (LOX IMVI melanoma): 364 µM
- TGI (HL-60(TB) leukemia): 262 µM
- TGI (T-47D breast): 554 µM
- TGI (CCRF-CEM leukemia): 494 µM
- TGI (EKVX NSCLC): 492 µM
- TGI (DU-145 prostate): 379 µM
- TGI (NCI-H23 lung): 329 µM
- TGI (HOP-18 NSCLC): 491 µM
- TGI (SR leukemia): 473 µM
- TGI (NCI-H522 lung): 246 µM
- TGI (K-562 leukemia): 508 µM
- TGI (SN12C renal): 309 µM
- TGI (NCI-H226 lung): 400 µM
- TGI (KM12 colon): 380 µM
- TGI (SF-268 CNS): 450 µM
- TGI (KM20L2 colon): 482 µM
- TGI (NCI/ADR-RES ovarian): 535 µM
- TGI (P388/ADR leukemia): 611 µM
- TGI (HOP-62 NSCLC): 92.2 µM
- TGI (DLD-1 colon): 494 µM
- TGI (ACHN renal): 361 µM
- TGI (OVCAR-4 ovarian): 281 µM
- TGI (NCI-H460 lung): 264 µM
- TGI (MDA-MB-231 breast): 430 µM
- TGI (DMS 114 small cell lung): 199 µM
- TGI (SW-620 colon): 685 µM
- TGI (HCT-116 colon): 372 µM
- TGI (OVCAR-8 ovarian): 472 µM
- TGI (HOP-92 NSCLC): 376 µM
- TGI (UO-31 renal): 444 µM
- TGI (SF-539 CNS): 299 µM
- TGI (P388 leukemia): 331 µM
- TGI (CAKI-1 renal): 497 µM
- TGI (HS 578T breast): 438 µM
- TGI (SNB-78 CNS): 359 µM
- TGI (SK-OV-3 ovarian): 525 µM
- TGI (SK-MEL-5 melanoma): 327 µM
- TGI (SN12K1 renal): 250 µM
- TGI (IGROV1 ovarian): 531 µM
- TGI (PC-3 prostate): 484 µM
- TGI (SNB-19 CNS): 743 µM
- TGI (HCC-2998 colon): 307 µM
- TGI (XF 498 CNS): 446 µM
- TGI (MALME-3M melanoma): 253 µM
- TGI (UACC-62 melanoma): 103 µM
- TGI (SK-MEL-28 melanoma): 380 µM
- TGI (OVCAR-3 ovarian): 444 µM
- TGI (SF-295 CNS): 551 µM
- TGI (HCT-15 colon): 410 µM
- TGI (DMS 273 small cell lung): 251 µM
- TGI (RXF 393 renal): 169 µM
- TGI (BT-549 breast): 300 µM
- TGI (U251 CNS): 599 µM
- TGI (M19-MEL melanoma): 369 µM
- TGI (SK-MEL-2 melanoma): 290 µM
- TGI (MDA-N): 310 µM
- TGI (HT29 colon): 605 µM
- TGI (TK-10 renal): 702 µM
- TGI (MCF7 breast): 622 µM
- TGI (MDA-MB-435): 327 µM
- TGI (786-0 renal): 413 µM
- TGI (RPMI-8226 leukemia): 736 µM
